Measured values reported in patent US20260256792A1, “TREATMENT OF CHRONIC SPONTANEOUS URTICARIA BY ADMINISTERING (R)-2-[3-[4-AMINO-3-(2-FLUORO-4-PHENOXY-PHENYL)PYRAZOLO[3,4-D]PYRIMIDIN-1-YL]PIPERIDINE-1-CARBONYL]-4-METHYL-4-[4-(OXETAN-3-YL)PIPERAZIN-1-YL]PENT-2-ENENITRILE” (priority 2023, published 2026).

Test system: moderate-to-severe chronic spontaneous urticaria (CSU)
Experiment: Phase 2 CSU study: Patient Global Impression of Severity (PGIS)
Format: in vivo, human
Conditions: for PGIS Change from baseline Mean (SD) / PGIS Change from baseline Median / PGIS Median / PGIS Percent change from baseline Mean (SD) / PGIS Percent change from baseline Median / PGIS category Mild, patients / PGIS category Moderate, patients / PGIS category None, patients / PGIS category Severe, patients: omalizumab-naïve population; for PGIS % Change difference for rilzabrutinib vs. placebo LS Mean (95% CI) / PGIS % Change from baseline LS Mean (SE) / PGIS Change difference for rilzabrutinib vs. placebo LS Mean (95% CI) / PGIS Change from baseline LS Mean (SE): omalizumab-naïve, ANCOVA
From the text: The study comprises a 12 week, randomized, double-blind, placebo-controlled, multi-center, dose-ranging efficacy and safety phase, followed by a 40 week open label extension (OLE) phase (see FIG. 1).
The study consists of three phases and an optional OLE phase.
The PGIS is a 1-item measure that asks participants to provide a self-assessment of their overall CSU severity for the past week on a 4 point scale. Response choices are: “None”, “Mild”, “Moderate” and “Severe”. The PGIC is a 1-item measure that asks the participant to provide a self-assessment of overall change in their CSU since the participant started taking the study medication on a 7-point scale. The response options range from “Very Much Better” to “Very Much Worse.” Patients were to complete questionnaires for the 2 items during their site visit.

CC(C)(C=C(C#N)C(=O)N1CCC[C@@H](n2nc(-c3ccc(Oc4ccccc4)cc3F)c3c(N)ncnc32)C1)N1CCN(C2COC2)CC1 [rilzabrutinib, (R)-2-[3-[4-amino-3-(2-fluoro-4-phenoxy-phenyl)pyrazolo[3,4-d]pyrimidin-1-yl]piperidine-1-carbonyl]-4-methyl-4-[4-(oxetan-3-yl)piperazin-1-yl]pent-2-enenitrile]
quality of life as measured by PGIS (400 mg TID): improvement
PGIS Change from baseline Mean (SD) (Week 2, 400 mg BID): −0.65
PGIS Change from baseline Median (Week 2, 400 mg BID): 0.00
PGIS Median (Week 2, 400 mg BID): 2.00
PGIS Percent change from baseline Mean (SD) (Week 2, 400 mg BID): −23.12%
PGIS Percent change from baseline Median (Week 2, 400 mg BID): 0.00%
PGIS category Mild, patients (Week 2, 400 mg BID): 8 (25.8)
PGIS category Moderate, patients (Week 2, 400 mg BID): 14 (45.2)
PGIS category None, patients (Week 2, 400 mg BID): 5 (16.1)
PGIS category Severe, patients (Week 2, 400 mg BID): 4 (12.9)
PGIS % Change difference for rilzabrutinib vs. placebo LS Mean (95% CI) (Week 2, 400 mg BID): −7.56 (−24.17, 9.05) %
PGIS % Change from baseline LS Mean (SE) (Week 2, 400 mg BID): −26.23 (6.28) %
PGIS Change difference for rilzabrutinib vs. placebo LS Mean (95% CI) (Week 2, 400 mg BID): −0.26 (−0.63, 0.11)
PGIS Change from baseline LS Mean (SE) (Week 2, 400 mg BID): −0.76 (0.14)
PGIS Change from baseline Mean (SD) (Week 2, 400 mg QPM): −0.48
PGIS Change from baseline Median (Week 2, 400 mg QPM): 0.00
PGIS Median (Week 2, 400 mg QPM): 2.00
PGIS Percent change from baseline Mean (SD) (Week 2, 400 mg QPM): −17.68%
PGIS Percent change from baseline Median (Week 2, 400 mg QPM): 0.00%
PGIS category Mild, patients (Week 2, 400 mg QPM): 8 (24.2)
PGIS category Moderate, patients (Week 2, 400 mg QPM): 17 (51.5)
PGIS category None, patients (Week 2, 400 mg QPM): 0
PGIS category Severe, patients (Week 2, 400 mg QPM): 8 (24.2)
PGIS % Change difference for rilzabrutinib vs. placebo LS Mean (95% CI) (Week 2, 400 mg QPM): 0.86 (−15.86, 17.59) %
PGIS % Change from baseline LS Mean (SE) (Week 2, 400 mg QPM): −17.80 (6.05) %
PGIS Change difference for rilzabrutinib vs. placebo LS Mean (95% CI) (Week 2, 400 mg QPM): 0.03 (−0.34, 0.41)
PGIS Change from baseline LS Mean (SE) (Week 2, 400 mg QPM): −0.47 (0.14)
PGIS Change from baseline Mean (SD) (Week 2, 400 mg TID): −0.94
PGIS Change from baseline Median (Week 2, 400 mg TID): 1.00
PGIS Median (Week 2, 400 mg TID): 1.00
PGIS Percent change from baseline Mean (SD) (Week 2, 400 mg TID): −41.92%
PGIS Percent change from baseline Median (Week 2, 400 mg TID): −50.00%
PGIS category Mild, patients (Week 2, 400 mg TID): 17 (50.0)
PGIS category Moderate, patients (Week 2, 400 mg TID): 9 (26.5)
PGIS category None, patients (Week 2, 400 mg TID): 4 (11.8)
PGIS category Severe, patients (Week 2, 400 mg TID): 4 (11.8)
PGIS % Change difference for rilzabrutinib vs. placebo LS Mean (95% CI) (Week 2, 400 mg TID): −22.00 (−38.77, −5.22) %
PGIS % Change from baseline LS Mean (SE) (Week 2, 400 mg TID): −40.66 (6.06) %
PGIS Change difference for rilzabrutinib vs. placebo LS Mean (95% CI) (Week 2, 400 mg TID): −0.46 (−0.83, −0.09)
PGIS Change from baseline LS Mean (SE) (Week 2, 400 mg TID): −0.96 (0.13)
PGIS Change from baseline Mean (SD) (Week 4, 400 mg BID): −0.70
PGIS Change from baseline Median (Week 4, 400 mg BID): 0.00
PGIS Median (Week 4, 400 mg BID): 2.00
PGIS Percent change from baseline Mean (SD) (Week 4, 400 mg BID): −27.78%
PGIS Percent change from baseline Median (Week 4, 400 mg BID): 0.00%
PGIS category Mild, patients (Week 4, 400 mg BID): 10 (30.3)
PGIS category Moderate, patients (Week 4, 400 mg BID): 15 (45.5)
PGIS category None, patients (Week 4, 400 mg BID): 5 (15.2)
PGIS category Severe, patients (Week 4, 400 mg BID): 3 (9.1)
PGIS % Change difference for rilzabrutinib vs. placebo LS Mean (95% CI) (Week 4, 400 mg BID): −1.31 (−17.26, 14.65) %
PGIS % Change from baseline LS Mean (SE) (Week 4, 400 mg BID): −29.83 (5.99) %
PGIS Change difference for rilzabrutinib vs. placebo LS Mean (95% CI) (Week 4, 400 mg BID): −0.12 (−0.48, 0.25)
PGIS Change from baseline LS Mean (SE) (Week 4, 400 mg BID): −0.81 (0.13)
PGIS Change from baseline Mean (SD) (Week 4, 400 mg QPM): −0.65
PGIS Change from baseline Median (Week 4, 400 mg QPM): −0.50
PGIS Median (Week 4, 400 mg QPM): 2.00
PGIS Percent change from baseline Mean (SD) (Week 4, 400 mg QPM): −25.49%
PGIS Percent change from baseline Median (Week 4, 400 mg QPM): −16.67%
PGIS category Mild, patients (Week 4, 400 mg QPM): 10 (29.4)
PGIS category Moderate, patients (Week 4, 400 mg QPM): 15 (44.1)
PGIS category None, patients (Week 4, 400 mg QPM): 1 (2.9)
PGIS category Severe, patients (Week 4, 400 mg QPM): 8 (23.5)
PGIS % Change difference for rilzabrutinib vs. placebo LS Mean (95% CI) (Week 4, 400 mg QPM): 3.06 (−12.83, 18.95) %
PGIS % Change from baseline LS Mean (SE) (Week 4, 400 mg QPM): −25.46 (5.77) %
PGIS Change difference for rilzabrutinib vs. placebo LS Mean (95% CI) (Week 4, 400 mg QPM): 0.09 (−0.27, 0.44)
PGIS Change from baseline LS Mean (SE) (Week 4, 400 mg QPM): −0.61 (0.13)
PGIS Change from baseline Mean (SD) (Week 4, 400 mg TID): −1.07
PGIS Change from baseline Median (Week 4, 400 mg TID): 1.00
PGIS Median (Week 4, 400 mg TID): 1.00
PGIS Percent change from baseline Mean (SD) (Week 4, 400 mg TID): −43.10%
PGIS Percent change from baseline Median (Week 4, 400 mg TID): −50.00%
PGIS category Mild, patients (Week 4, 400 mg TID): 15 (51.7)
PGIS category Moderate, patients (Week 4, 400 mg TID): 9 (31.0)
PGIS category None, patients (Week 4, 400 mg TID): 3 (10.3)
PGIS category Severe, patients (Week 4, 400 mg TID): 2 (6.9)
PGIS % Change from baseline LS Mean (SE) (Week 4, 400 mg TID): −41.04 (6.24) %
PGIS Change difference for rilzabrutinib vs. placebo LS Mean (95% CI) (Week 4, 400 mg TID): −0.27 (−0.62, 0.09)
